Assay results published in patent US5026836A, “6-sulfenamide, 6-sulfinamide and 6-sulfonamide purines, purine nucleosides, purine nucleotides, pharmaceutical compositions, and processes of making” (priority 1988, dated 1991).
“Also recorded” adds a separate entry of the source.

How the values were obtained:
Type in all cases: in vivo, mouse
L1210 cells = assay: Life span of BDF1 mice inoculated ip with 10^6 L1210 leukemia cells
Experimental: As illustrative examples of use of the compounds of the invention the following examples are given. […] These standard tests utilize protocols developed under the auspices of the Developmental Therapeutics Program, Division of Cancer Treatment, National Cancer Institute, Bethesda, Md., U.S.A. Except as otherwise indicated the tests conform to these protocols and are evaluated utilizing criteria defined by the protocols.
Values below 25% are considered capable of producing effective therapy, those below 10% are considered good and those below 5% are considered very good. This expresses the percent of the cells which survived treatment based upon the original cells in the inoculum. Those tests expressed as increases in life span (% ILS) indicate the increased life span of the drug treated group compared to a control group.
As an indicator of reproducible activity, compounds of the invention and other known cancer chemotherapeutic agents were screened against L1210 lymphoid leukemia in vivo utilizing the mouse as a test species. Normal NCI protocols for this test require 10^5 seed cells of the L1210 cell line.
Cytosine Arabinoside must be given every three hours.
Mice were inoculated intraperitoneally on day 0 with a million cells of murine leukemia L1210. Drug was given qd days 1, 4 and 7. Increased life span is the mean increase in the treated group presented as a percentage of the mean life span of control mice.
Mice were inoculated intraperitoneally on day 0 with a million cells of murine leukemia L1210. Drugs were given qd days 1, 3, 5 and 7. Increased life span is presented as a percentage of the mean life span of control mice.

Murine Glioma 261 = Murine Glioma 261 tumor weight in C57B1/6 mice; details: qd days 1-9; for Attained tumor wt (Mean ± 1SD): day 10; for T/C (%): active at or below 42%
Experimental: Compound 19 was also tested against Murine Glioma 261. In this test activity is indicated at levels of T/C below 42%. As is shown in Table 19, Compound 19 is active at various doses against this tumor system.

L1210/Compound 18 cells = assay: Compound 18 resistant L1210 cells surviving treatment
Experimental: In Examples G through K Compound 19 was tested against L1210 cell lines which had developed resistance to other known cancer chemotherapeutic agents.
In Example K, the results of which are shown in Table 11 below, Compound 19 was tested against drug resistant cell lines developed against Compound 18. […]

[1] = ip 37 mg/kg/inj, bid days 1,3,5,7
[2] = ip 62 mg/kg/inj, bid days 1,4,7
[3] = ip 104 mg/kg/inj, qd days 1,4,7
[4] = ip 173 mg/kg/inj, qd days 1,4,7

SMILES: Nc1nc([S+](N)[O-])c2ncn([C@@H]3O[C@H](CO)[C@@H](O)[C@H]3O)c2n1 (mixture of isomers) [Compound 19, 2-amino-9-β-D-ribofuranosyl-9H-purine-6-sulfinamide]
- Increased life span (L1210 cells; 37 mg/kg/inj injected, qd days 1,3,5,7): 74%
- Increased life span (L1210 cells; 62 mg/kg/inj injected, qd days 1,3,5,7): 123%
- Increased life span (L1210 cells; 104 mg/kg/inj injected, qd days 1,3,5,7): 136%
- Increased life span (L1210 cells; 173 mg/kg/inj injected, qd days 1,3,5,7): 189%
- dose at which significant activity is indicated (L1210 cells; delivered only once on day 1, ip): about 37 mg per kg
- T/C (%) (L1210 cells; ip 13 mg/kg, qd day 1): 106%
- T/C (%) (L1210 cells; ip 22 mg/kg, qd day 1): 106%
- Life span (% T/C) (L1210 cells; ip 22 mg/kg/inj, bid days 1,3,5,7): 193%
- Life span (% T/C) (L1210 cells; ip 22 mg/kg/inj, bid days 1,4,7): 161%
- Life span (% T/C) (L1210 cells; ip 22 mg/kg/inj, bid days 1-7): 200%
- T/C (%) (L1210 cells; ip 37 mg/kg, qd day 1): 128%
- % ILS (L1210 cells; [1]): 79%
- Life span (% T/C) (L1210 cells; [1]): 236%
- Life span (% T/C) (L1210 cells; ip 37 mg/kg/inj, bid days 1,4,7): 216%
- Life span (% T/C) (L1210 cells; ip 37 mg/kg/inj, bid days 1-7): 233%
- Life span (% T/C) (L1210 cells; ip 37 mg/kg/inj, qd days 1,3,5,7): 174%
- Increased life span (L1210 cells; ip 37 mg/kg/inj, qd days 1,4,7): 54%
- Life span (% T/C) (L1210 cells; ip 37 mg/kg/inj, qd days 1,4,7): 154%
- Life span (% T/C) (L1210 cells; ip 37 mg/kg/inj, qd days 1-7): 213%
- T/C (%) (L1210 cells; ip 62 mg/kg, bid day 1): 184%
- T/C (%) (L1210 cells; ip 62 mg/kg, qd day 1): 135%
- T/C (%) (L1210 cells; ip 62 mg/kg, qid day 1): 194%
- T/C (%) (L1210 cells; ip 62 mg/kg, tid day 1): 183%
- Life span (% T/C) (L1210 cells; ip 62 mg/kg/inj, bid days 1,3,5,7): 285%
- % ILS (L1210 cells; [2]): 88%
- Life span (% T/C) (L1210 cells; [2]): 249%
- long term survivors (L1210 cells; ip 62 mg/kg/inj, bid days 1-7): 2
- Life span (% T/C) (L1210 cells; ip 62 mg/kg/inj, bid days 1-7, 2 long term survivors not included): 361%
- Life span (% T/C) (L1210 cells; ip 62 mg/kg/inj, qd days 1,3,5,7): 223%
- Increased life span (L1210 cells; ip 62 mg/kg/inj, qd days 1,4,7): 93%
- Life span (% T/C) (L1210 cells; ip 62 mg/kg/inj, qd days 1,4,7): 193%
- Life span (% T/C) (L1210 cells; ip 62 mg/kg/inj, qd days 1-7): 239%
- T/C (%) (L1210 cells; ip 104 mg/kg, qd day 1): 151%
- Life span (% T/C) (L1210 cells; ip 104 mg/kg/inj, bid days 1,4,7, 1 toxic death not included): 311%
- Life span (% T/C) (L1210 cells; ip 104 mg/kg/inj, qd days 1,3,5,7): 236%
- Increased life span (L1210 cells; [3]): 130%
- Life span (% T/C) (L1210 cells; [3]): 230%
- long term survivors (L1210 cells; ip 104 mg/kg/inj, qd days 1-7): 1
- Life span (% T/C) (L1210 cells; ip 104 mg/kg/inj, qd days 1-7, 1 long term survivor not included): 307%
- T/C (%) (L1210 cells; ip 173 mg/kg, qd day 1): 167%
- Life span (% T/C) (L1210 cells; ip 173 mg/kg/inj, qd days 1,3,5,7): 289%
- Increased life span (L1210 cells; [4]): 169%
- Life span (% T/C) (L1210 cells; [4]): 269%
- in vivo antitumor activity (L1210 cells; mouse, in vivo): good in vivo activity
- oral activity (words) (L1210 cells): Oral activity is seen
- Activity against I.P. L1210 cells, T/C (L1210 cells; oral 37 mg/kg, bid days 1,3,5,7): 148.6%
- Activity against I.P. L1210 cells, T/C (L1210 cells; oral 37 mg/kg, qd days 1,4,7): 144.6%
- % ILS (L1210 cells; oral 37 mg/kg/inj, bid days 1,3,5,7): 49%
- Increased life span (L1210 cells; oral 37 mg/kg/inj, qd days 1,4,7): 45%
- Activity against I.P. L1210 cells, T/C (L1210 cells; oral 62 mg/kg, bid days 1,4,7): 140.0%
- Activity against I.P. L1210 cells, T/C (L1210 cells; oral 62 mg/kg, qd days 1,4,7): 144.6%
- % ILS (L1210 cells; oral 62 mg/kg/inj, bid days 1,4,7): 40%
- Increased life span (L1210 cells; oral 62 mg/kg/inj, qd days 1,4,7): 45%
- Activity against I.P. L1210 cells, T/C (L1210 cells; oral 104 mg/kg, qd days 1,4,7): 138.5%
- Increased life span (L1210 cells; oral 104 mg/kg/inj, qd days 1,4,7): 38%
- Activity against I.P. L1210 cells, T/C (L1210 cells; oral 173 mg/kg, qd days 1,4,7): 138.5%
- Increased life span (L1210 cells; oral 173 mg/kg/inj, qd days 1,4,7): 38%
- oral activity (words) (L1210 cells; listed as 2-amino-9-β-D-ribofuranosyl-9H-purine-6-sulfinamide): active in both an oral and an injectable form; also recorded: orally active
- % ILS (L1210 cells; single agent day 1, Compound 19 173 mg/kg, Compound 18 22 mg/kg (Table 12)): 88%
- % ILS (L1210 cells; single agent day 1, Compound 19 173 mg/kg, Tiazofurin 22 mg/kg (Table 13)): 81%
- Attained tumor wt (Mean ± 1SD) (Murine Glioma 261; ip 22 mg/kg/inj): 80 ± 130 mg
- Attained tumor wt (Mean ± 1SD) (Murine Glioma 261; ip 37 mg/kg/inj): 119 ± 105 mg
- Attained tumor wt (Mean ± 1SD) (Murine Glioma 261; ip 62 mg/kg/inj): 137 ± 124 mg
- Attained tumor wt (Mean ± 1SD) (Murine Glioma 261; ip 104 mg/kg/inj): 5 ± 5 mg
- T/C (%) (Murine Glioma 261; ip 22 mg/kg/inj): 22.9%
- T/C (%) (Murine Glioma 261; ip 37 mg/kg/inj): 34.1%
- T/C (%) (Murine Glioma 261; ip 62 mg/kg/inj): 39.3%
- T/C (%) (Murine Glioma 261; ip 104 mg/kg/inj): 1.4%
- L1210/Compound 18 cells surviving (% of day zero inoculum) (L1210/Compound 18 cells; ip 62 mg/kg/day, bid day 1): 27.4%
- L1210/Compound 18 cells surviving (% of day zero inoculum) (L1210/Compound 18 cells; ip 62 mg/kg/day, qd day 1): 100.0%
- L1210/Compound 18 cells surviving (% of day zero inoculum) (L1210/Compound 18 cells; ip 104 mg/kg/day, qd day 1): 17.9%
- L1210/Compound 18 cells surviving (% of day zero inoculum) (L1210/Compound 18 cells; ip 173 mg/kg/day, qd day 1): 7.5%
- activity against Compound 18 resistant L1210 (L1210/Compound 18 cells; mouse, in vivo): effective against those L1210 cell lines which have developed resistance against Compound 18; also recorded: active against cells which developed resistance to Compound 18
